We go through 7 molecules from patent US20240010998A1, “FLAVONE 4'-O-METHYLTRANSFERASE GENE AND USE FOR SAME” (SUNTORY HOLDINGS LIMITED, priority 2020, published 2024).

A short description of data set [1]: Simulation of flavone C-glycoside copigment effect with anthocyanin (malvin): absorption spectrum. It is filed as physicochemical. As to conditions: for Absorption maximum of malvin solution upon addition of flavone C-glycoside (λmax): flavone C-glycoside added at 10-equivalent molar concentration to 0.5 mM malvin. Here is the method:
An anthocyanin (malvin) and flavone C-glycoside were prepared to simulate the copigment effect of the flavone C-glycoside on malvin. The malvin (malvidin 3,5-diglucoside) and flavone C-glycosides (isovitexin (apigenin 6-C-glucoside), isoorientin (luteolin 6-C-glucoside) and swertisin (genkwanin 6-C-glucoside) used in the experiments were purchased from Nacalai Tesque, Inc. Embigenin (7,4′-dimethoxyisovitexin) was prepared by artificial organic synthesis from isovitexin. Each flavone C-glycoside (isovitexin, isoorientin, swertisin or embigenin) was added to the malvin at 10-equivalent molar concentration in a buffering solution at pH 5.0, and the absorption spectrum was measured. The malvin concentration was 0.5 mM.

The next data set concerns DN144 (IjFn-4′OMT). As to the kind of experiment: Enzyme activity measurement with crude protein solution extract from E. coli expressing DN144. The format is biochemical, fringed iris (Iris japonica). As to conditions: flavone substrate; for Produced compound: SAM, 30 minutes at 30° C., HPLC detection at 330 nm. Here is the method: With DN144 as a candidate protein having activity of transferring a methyl group to the 4′-position hydroxyl group of flavone C-glycoside, and using pET15b (Novagen), an E. coli expression vector pSPB7942 containing the full-length of DN144 was constructed according to the manufacturer's recommended protocol.
Vector pSPB7942 was introduced into E. coli BL21(DE3) (New England Biolabs Japan Inc) by the manufacturer's recommended protocol, to obtain E. coli transformants. The E. coli were cultured using an Overnight Express Autoinduction System 1 (Novagen), according to the manufacturer's recommended protocol. The E. coli transformants were cultured at 37° C. (approximately 4 hours) with 2 mL of prepared culture solution, to an OD600 value of 0.5. The E. coli solution was added as a preculturing solution to 50 mL of culture solution, and main culturing was carried out for two nights at 16° C. The E. coli solution cultured for two nights was centrifuged (3,000 rpm, 4° C., 15 minutes), and the collected cells were suspended in sonic buffer (composition: 40 mM KPB (pH7.5), 1 mM dithiothreitol. 50 μM amidinophenylmethanesulfonyl fluoride hydrochloride, 500 μM ethylenediaminetetraacetic acid. 2 mM MgCl2, 1 μM S-adenosylmethionine (SAM)). A 5 mL portion of sonic buffer was added for each 1 g of E. coli. The suspended E. coli cells were crushed by ultrasonic treatment and then centrifuged (15,000 rpm, 4° C., 10 minutes), and the supernatant was recovered. The supernatant was used as a crude protein solution extract from E. coli expressing DN144. A TOMY MX-307 (rotor: AR015-24) was used for centrifugal separation (Tomy Seiko Co., Ltd.).
The substrates used for activity measurement were apigenin, apigenin 7-glucoside, isovitexin 2″-rhamnoside, saponarin (isovitexin 4′-glucoside), swertisin, luteolin, luteolin 7-glucoside, isoorientin, swertiajapanin (isoorientin 7-methyl ether), delphinidin 3-glucoside, delphinidin 3,5-diglucoside and malvidin 3,5-diglucoside. A mixture of 8 μL of each 1 mM substrate (50% acetonitrile aqueous solution containing 0.1% TFA), 20 μL of 10 mM SAM, 10 μL of 1 M KPB (pH 7.5) and 20 μL of 10 mM MgCl2 adjusted to 58 μL was kept at 30° C. for 10 minutes, and then 42 μL of crude protein solution extract from DN144-expressing E. coli was added for enzyme reaction (30 minutes at 30° C.). Next, 100 μL of stop buffer (aqueous 90% acetonitrile solution containing TFA) was added to stop the enzyme reaction, and the enzyme reaction solution was analyzed by high-performance liquid chromatography (LC-2030C by Shimadzu Corp.). Detection was at 330 nm using a Shimadzu PDA SPD-M20A as the detector. The column used as a Shim-Pack FC-ODS 150 mm*4.6 min (Shimadzu GLC). Elution was performed using solution A (0.1% TFA aqueous solution) and solution B (aqueous 90% acetonitrile solution containing 0.1% TFA). The elution was with a 20-minute linear concentration Gradient from a 9:1 mixture to a 8:2 mixture, a 15-minute linear concentration gradient from a 8:2. mixture to a 2:8 mixture and a 5-minute linear concentration gradient from a 2:8 mixture to a 0:10 mixture, followed by elution with a 0:10 mixture for 1 minute. The flow rate was 0.6 mL/min. As a control, the same experiment was carried out using a crude protein solution extract from E. coli in which pET15b vector without the insert had been introduced. As a result, compounds were detected in the enzyme reaction solutions obtained by reacting the 10 different flavones with the crude protein solution extract from the DN144-expressing E. coli. […] With reaction of the 3 different anthocyanins, no peaks were detected other than for the substrates in the enzyme reaction solution. When enzyme reaction was conducted using an anthocyanin substrate, the enzyme reaction conditions were 30° C., 15 minutes, and an aqueous 90% acetonitrile solution containing 0.1% TFA and 0.24 N hydrochloric acid was used as the stop buffer. […]

`COc1ccc(-c2cc(=O)c3c(O)c([C@@H]4O[C@H](CO)[C@@H](O)[C@H](O)[C@H]4O)c(OC)cc3o2)cc1` [Embigenin, 7,4′-dimethoxyisovitexin]: the “Copigment effect with respect to malvin (absorbance increase, shift of absorption maximum toward long wavelength end)” value in data set [1] (10-equivalent flavone C-glycoside, 0.5 mM malvin, pH 5.0) is on record as “highest copigment effect”. Also, the “Absorption maximum of malvin solution upon addition of flavone C-glycoside (λmax)” value in data set [1] (buffering solution pH 5.0) is 581 nm.
For the molecule `O=c1cc(-c2ccc(O)c(O)c2)oc2cc(O)c([C@@H]3O[C@H](CO)[C@@H](O)[C@H](O)[C@H]3O)c(O)c12` [Isoorientin, luteolin 6-C-glucoside], the “Methyltransferase activity of DN144 for the substrate” value (“Methyltransferase activity of DN144” for short) in the data set with DN144 (IjFn-4′OMT) is reported as “strong methyltransferase activity”. For the same molecule, in data set [1] (buffering solution pH 5.0), the “Absorption maximum of malvin solution upon addition of flavone C-glycoside (λmax)” value is given as 575 nm.
For `O=c1cc(-c2ccc(O)cc2)oc2cc(O)c([C@@H]3O[C@H](CO)[C@@H](O)[C@H](O)[C@H]3O)c(O)c12` [Isovitexin, apigenin 6-C-glucoside], the values for the Produced compound result in the data set with DN144 (IjFn-4′OMT) and in the data set with DN144 (IjFn-4′OMT) (listed as isovitexin) were “Isocytisoside” and “conversion to isocytisoside was confirmed”, respectively. Also, the “Absorption maximum of malvin solution upon addition of flavone C-glycoside (λmax)” value in data set [1] (buffering solution pH 5.0) is 578 nm.
Regarding `COc1cc(-c2[o+]c3cc(O)cc(O[C@@H]4O[C@H](CO)[C@@H](O)[C@H](O)[C@H]4O)c3cc2O[C@@H]2O[C@H](CO)[C@@H](O)[C@H](O)[C@H]2O)cc(OC)c1O` [Malvin, malvidin 3,5-diglucoside], the “Absorption maximum of malvin solution (λmax)” value in data set [1] (malvin alone, 0.5 mM, buffering solution pH 5.0) was 529 nm.
In the case of `COc1cc2oc(-c3ccc(O)c(O)c3)cc(=O)c2c(O)c1[C@@H]1O[C@H](CO)[C@@H](O)[C@H](O)[C@H]1O` [Swertiajaponin, luteolin 7-methyl-6-C-glucoside], the “Methyltransferase activity of DN144” value with DN144 (IjFn-4′OMT) is on record as “strong methyltransferase activity”.
As for `COc1cc2oc(-c3ccc(O)cc3)cc(=O)c2c(O)c1[C@@H]1O[C@H](CO)[C@@H](O)[C@H](O)[C@H]1O` [Swertisin, genkwanin 6-C-glucoside], the Produced compound result in the data set with DN144 (IjFn-4′OMT) is on record as “Embigenin”; in the data set on DN144 (IjFn-4′OMT) (listed as swertisin), “conversion to embigenin was confirmed”. Also, in data set [1] (buffering solution pH 5.0), the “Absorption maximum of malvin solution upon addition of flavone C-glycoside (λmax)” value is reported as 579 nm.
In the case of isovitexin 2″-rhamnoside, the “Methyltransferase activity of DN144” value with DN144 (IjFn-4′OMT) is listed as “strong methyltransferase activity”.
